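Cultured in 96-well plates, cells were exposed to test compound for 48 hours across five concentrations. GI50: concentration for 50% inhibition of growth.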 Calls of active or inactive are those of the source. Rule as the data show it: active = GI50 up to about 1.1 µM and inactive = higher.
Key:
Assay in all cases: NCI anticancer screen, dose series, 48 h
[1] = system: MDA-MB-231
[2] = system: HCC 2998
[3] = system: SR
[4] = system: EKVX
[5] = system: ACHN
[6] = system: SNB-78
[7] = system: HL-60
[8] = system: OVCAR-3
[9] = system: NCI-H522
[10] = system: SNB-19
[11] = system: MCF7
[12] = system: PC-3
[13] = system: NCI-H226
[14] = system: LOX IMVI
[15] = system: T47D
[16] = system: IGROV-1
[17] = system: MDA-N
[18] = system: DMS-273
[19] = system: TK-10
[20] = system: RXF 393
[21] = system: M19-MEL
[22] = system: XF498
[23] = system: SK-MEL-2
[24] = system: M14
[25] = system: UO-31
[26] = system: SF-539
[27] = system: SK-OV-3
[28] = system: A498
[29] = system: COLO 205
[30] = system: SF-295
[31] = system: A549
[32] = system: DLD-1
[33] = system: HOP-18
[34] = system: Hs-578T
[35] = system: HCT-116
[36] = system: OVCAR-4
[37] = system: MOLT-4
[38] = system: HCT-15
[39] = system: NCI-H460
[40] = system: UACC-257
[41] = system: K562
[42] = system: NCI-H23
[43] = system: BT-549
[44] = system: KM12
[45] = system: CCRF-CEM
[46] = system: U-251
[47] = system: HOP-92
[48] = system: SF-268
[49] = system: CAKI-1
[50] = system: RPMI-8226
[51] = system: DU-145
[52] = system: OVCAR-5
[53] = system: MDA-MB-435
[54] = system: Malme-3M
[55] = system: DMS-114
[56] = system: 786-0
[57] = system: SK-MEL-5
[58] = system: SW-620
[59] = system: KM-20L2
[60] = system: NCI/ADR-RES
[61] = system: HT-29
[62] = system: HOP-62
[63] = system: SNB-75
[64] = system: SK-MEL-28
[65] = system: OVCAR-8
[66] = system: SN12C
[67] = system: UACC-62
[68] = system: LXFL 529

SMILES: COc1ccccc1/C=C1\CCC(CN(C)C)C1=O (centres undefined)
- GI50 [1]: 2.43 µM (inactive)
- GI50 [2]: 5.21 µM (inactive)
- GI50 [3]: 6.15 µM (inactive)
- GI50 [4]: 15 µM (inactive)
- GI50 [5]: 8.02 µM (inactive)
- GI50 [6]: 9.4 µM (inactive)
- GI50 [7]: 1.49 µM (inactive)
- GI50 [8]: 5.38 µM (inactive)
- GI50 [9]: 1.85 µM (inactive)
- GI50 [10]: 17.1 µM (inactive)
- GI50 [11]: 2.12 µM (inactive)
- GI50 [12]: 8.05 µM (inactive)
- GI50 [13]: 11.4 µM (inactive)
- GI50 [14]: 2.14 µM (inactive)
- GI50 [15]: 3.58 µM (inactive)
- GI50 [16]: 13.3 µM (inactive)
- GI50 [17]: 4.09 µM (inactive)
- GI50 [18]: 6.9 µM (inactive)
- GI50 [19]: 5.73 µM (inactive)
- GI50 [20]: 3.84 µM (inactive)
- GI50 [21]: 2.78 µM (inactive)
- GI50 [22]: 18.3 µM (inactive)
- GI50 [23]: 8.51 µM (inactive)
- GI50 [24]: 3.64 µM (inactive)
- GI50 [25]: 7.74 µM (inactive)
- GI50 [26]: 7.41 µM (inactive)
- GI50 [27]: 19.4 µM (inactive)
- GI50 [28]: 19.3 µM (inactive)
- GI50 [29]: 2.25 µM (inactive)
- GI50 [30]: 15.2 µM (inactive)
- GI50 [31]: 20.1 µM (inactive)
- GI50 [32]: 2.2 µM (inactive)
- GI50 [33]: 22.9 µM (inactive)
- GI50 [34]: 9.86 µM (inactive)
- GI50 [35]: 3.48 µM (inactive)
- GI50 [36]: 6.92 µM (inactive)
- GI50 [37]: 4.61 µM (inactive)
- GI50 [38]: 2.75 µM
- GI50 [39]: 19.6 µM (inactive)
- GI50 [40]: 10.8 µM (inactive)
- GI50 [41]: 2.28 µM (inactive)
- GI50 [42]: 10.8 µM (inactive)
- GI50 [43]: 13.3 µM (inactive)
- GI50 [44]: 3.75 µM (inactive)
- GI50 [45]: 1.5 µM (inactive)
- GI50 [46]: 11.1 µM (inactive)
- GI50 [47]: 2.99 µM (inactive)
- GI50 [48]: 10.6 µM (inactive)
- GI50 [49]: 5.6 µM (inactive)
- GI50 [50]: 2.05 µM (inactive)
- GI50 [51]: 11.8 µM (inactive)
- GI50 [52]: 12.7 µM (inactive)
- GI50 [53]: 8.83 µM (inactive)
- GI50 [54]: 6.19 µM (inactive)
- GI50 [55]: 2.75 µM (inactive)
- GI50 [56]: 2.16 µM (inactive)
- GI50 [57]: 12.4 µM (inactive)
- GI50 [58]: 2.58 µM (inactive)
- GI50 [59]: 4.24 µM (inactive)
- GI50 [60]: 7.24 µM (inactive)
- GI50 [61]: 4.89 µM (inactive)
- GI50 [62]: 19.5 µM (inactive)
- GI50 [63]: 8.49 µM (inactive)
- GI50 [64]: 4.36 µM (inactive)
- GI50 [65]: 5.78 µM (inactive)
- GI50 [66]: 2.48 µM (inactive)
- GI50 [67]: 4.21 µM (inactive)

SMILES: O=C(CC(=O)Nc1ccc(Cl)cc1)NNCC(=O)Nc1nc(-c2ccccc2)cs1
- GI50 [2]: > 100 µM (inactive)
- GI50 [4]: > 100 µM (inactive)
- GI50 [6]: > 100 µM (inactive)
- GI50 [7]: > 100 µM (inactive)
- GI50 [8]: > 100 µM (inactive)
- GI50 [9]: > 100 µM (inactive)
- GI50 [10]: > 100 µM (inactive)
- GI50 [13]: > 100 µM (inactive)
- GI50 [14]: > 100 µM (inactive)
- GI50 [16]: > 100 µM (inactive)
- GI50 [18]: > 100 µM (inactive)
- GI50 [19]: > 100 µM (inactive)
- GI50 [20]: > 100 µM (inactive)
- GI50 [21]: > 100 µM (inactive)
- GI50 [22]: > 100 µM (inactive)
- GI50 [24]: > 100 µM (inactive)
- GI50 [26]: > 100 µM (inactive)
- GI50 [27]: > 100 µM (inactive)
- GI50 [68]: 75.7 µM (inactive)
- GI50 [29]: > 100 µM (inactive)
- GI50 [30]: > 100 µM (inactive)
- GI50 [31]: > 100 µM (inactive)
- GI50 [32]: > 100 µM (inactive)
- GI50 [33]: > 100 µM (inactive)
- GI50 [35]: > 100 µM (inactive)
- GI50 [36]: > 100 µM (inactive)
- GI50 [37]: > 100 µM (inactive)
- GI50 [39]: > 100 µM (inactive)
- GI50 [41]: 72.4 µM (inactive)
- GI50 [42]: > 100 µM (inactive)
- GI50 [44]: > 100 µM (inactive)
- GI50 [45]: > 100 µM (inactive)
- GI50 [46]: > 100 µM (inactive)
- GI50 [48]: > 100 µM (inactive)
- GI50 [50]: > 100 µM (inactive)
- GI50 [55]: > 100 µM (inactive)
- GI50 [56]: > 100 µM (inactive)
- GI50 [57]: > 100 µM (inactive)
- GI50 [58]: > 100 µM (inactive)
- GI50 [59]: 59.6 µM (inactive)
- GI50 [61]: > 100 µM (inactive)
- GI50 [62]: > 100 µM (inactive)
- GI50 [63]: > 100 µM (inactive)
- GI50 [64]: > 100 µM (inactive)
- GI50 [65]: > 100 µM (inactive)
- GI50 [66]: > 100 µM (inactive)
- GI50 [67]: 47.5 µM (inactive)

— ChEMBL document CHEMBL1201862, “PubChem BioAssay data set” (2004)
